Source: US8871226B2, “Methods and compositions for the treatment and diagnosis of cancer” (Hafid Mahboubi, priority 2003, dated 2014)

Legend:
[1] = test system: Cancer of the Ovary with Liver Metastasis; assay: Antimycotic treatment of a Candida-seropositive patient, cancer of the ovary with liver metastasis; format: in vivo, human; details: Patient 6, Candida serological test 640; 100 mg 1 capsule a day for 30 days
Description: The inventor has performed many serological tests on patients suffering from various illnesses and particularly from different types of cancer.
Patient 6: person with Cancer of the Ovary with Liver Metastasis.
The patient was treated with Diflucan, 100 mg 1 capsule a day. For 30 days

Psoriasis = assay: Antimycotic treatment of a Candida-seropositive patient, psoriasis; format: in vivo, human; details: Patient 4, Candida serological test 640; 100 mg 1 capsule a day for 1 month
Description: (§1) The inventor has performed many serological tests on patients suffering from various illnesses and particularly from different types of cancer. The inventor has shown that, in many of the patients who tested positive for Candida in the serological tests, after antimycotic treatments, a full recovery was observed, with complete disappearance of the tumours in the case of the patients affected by cancer.
Positive Candida serological test (640)
The patient was treated with Diflucan, 100 mg 1×1 capsule a day. For 1 month.

C. cruzii = details: infections caused by C. cruzii; cited from earlier work
candidiasis = details: in vivo; cited from earlier work
C. glabrata = details: some other species of Candida, particularly C. glabrata; cited from earlier work
[2] = test system: tumour of the myoma of the uterus; assay: Antimycotic treatment of a Candida-seropositive patient, tumour of the myoma of the uterus; format: in vivo, human; details: Patient 1, Candida rate 640; 1 tablet 2x day for two weeks, then 1 tablet a day for 30 days
Excerpt: as §1
A patient, hospitalised, suffering from a tumour of the myoma of the uterus.
The patient was treated with Nizoral (1 tablet 2× day for two weeks, then 1 tablet a day for 30 days).

Prostate Cancer = assay: Antimycotic treatment of Candida-seropositive patients, prostate cancer; format: in vivo, human
Excerpt: as §1
Patient 2: person with Prostate Cancer.
Positive for Candida serological test (640)
The patient was treated with Orungal, 100 mg capsules, 1×1 caps a day for 1 month.
Patient 7: person with Prostate Cancer
Positive candida serological test (320).
The patient was treated with Nizoral (1 tablet 2× day for two weeks, then 1 tablet a day for 30 days.

Breast Cancer = assay: Antimycotic treatment of a Candida-seropositive patient, breast cancer; format: in vivo, human; details: Patient 3, Candida serological test 320; capsule 100 mg, 1 caps a day for 60 days
Description: as §1
Patient 3: person with Breast Cancer
The patient was treated with Orungal, capsule 100 mg, 1×1 caps a day for 60 days.

Ulcerative Colitis = assay: Antimycotic treatment of a Candida-seropositive patient, ulcerative colitis; format: in vivo, human; details: Patient 5, serological test 320; 100 mg 1 caps a day for 28 days
Description: as §1
Patient 5: Ulcerative Colitis.
Positive serological test (320).
The patient was treated with Orungal, 100 mg 1×1 caps a day, for 28 days.

OC(Cn1cncn1)(Cn1cncn1)c1ccc(F)cc1F [Diflucan]
Result of treatment [1]: Complete recovery with disappearance of the tumours | Result of treatment (Psoriasis): Complete recovery at the end of the treatment

OC(Cn1cncn1)(Cn1cncn1)c1ccc(F)cc1F [Fluconazole, fluconazole]
Response of infections to treatment (C. cruzii): do not respond | Effectiveness in candidiasis compared with amphotericin B (candidiasis): as effective as amphotericin B | Sensitivity compared with C. albicans (C. glabrata): less sensitive

CC(=O)N1CCN(c2ccc(OCC3COC(Cn4ccnc4)(c4ccc(Cl)cc4Cl)O3)cc2)CC1 (stereo not shown) [Nizoral]
Result of treatment (tumour) [2]: Disappearance of the tumour at the end of the treatment | Result of treatment (Prostate Cancer; Patient 7, Candida serological test 320, 1 tablet 2x day for two weeks, then 1 tablet a day for 30 days): Complete recovery

CCC(C)n1ncn(-c2ccc(N3CCN(c4ccc(OCC5COC(Cn6cncn6)(c6ccc(Cl)cc6Cl)O5)cc4)CC3)cc2)c1=O (stereo not shown) [Orungal]
Result of treatment (Breast Cancer): Complete recovery at the end of the treatment | Result of treatment (Prostate Cancer; Patient 2, Candida serological test 640, 100 mg capsules, 1 caps a day for 1 month): Complete recovery at the end of the treatment with disappearance of the tumour | Result of treatment (Ulcerative Colitis): Complete recovery at the end of the treatment
